Results: patent US12447151B2, “Alkyne derivative, preparation method for same, and uses thereof” (ZHEJIANG HISUN PHARMACEUTICAL CO., LTD., priority 2019, dated 2025)

Tests used:
[1] = target: PI3Kα(C2C12) (Mus musculus (Mouse), UniProt P42337); assay: Cell activity of PI3K subtypes, AlphaLISA p-AKT (pS473); assay type: cell-based; conditions: C2C12 cells, IGF-1 stimulated
From the text: (§1) The following method was used to determine the degree of inhibition of the compounds of the present invention on activity of PI3Kα, PI3Kβ, PI3Kγ, and PI3Kδ kinase in different cells. The AlphaLISA SureFire Ultra p-AKT1/2/3 (pS473) kit (#ALSU-PAKT-B500) of PE company was used in the method. The above kit used AlphaLISA technology, using donor and acceptor beads to detect the interaction of biomolecules, to detect the content of p-AKT (pS473), reflecting the intensity of inhibition of the compounds on PI3Kα, PI3Kβ, PI3Kγ and PI3Kδ at the cell level. For detailed experimental operations, please refer to the kit instructions.
(§2) The experimental procedure was briefly described as follows: the experiment was carried out in a 384-well plate using a Multidrop dispenser (Thermo, #836-4049), using different cells for different PI3K subtypes (PI3Kα: C2C12 cells (myoblasts); PI3Kβ: PC-3 cells (human prostate cancer cells); PI3Kγ: Raw264.7 cells (monocyte macrophages); PI3Kδ: Raji cells (lymphoma cells)). 6 μL of the corresponding cells were transferred to the wells of a 384-well plate. After centrifugation 500 RPM for 30 seconds, the plate was placed in a 37° C., 5% CO2 incubator for 2 hours. The test compound was first dissolved in DMSO to prepare a 10 mM stock solution, which was diluted 4-fold with DMSO. 30 nL was transferred by Echo (Labcyte, #550) to each well (final concentration is 10000 nM-0.2 nM), and incubated for 30 minutes. Then for C2C12 cells used for PI3Kα subtype, 2 uL IGF-1 (R&D, #291-G1-200, final concentration 1200 ng/mL) was added and incubated for 20 minutes. For PC-3 cells used for PI3Kβ subtype, 2 μL LPA (Sigma, #L7260, final concentration 15 ug/mL) was added and incubated for 20 minutes. For Raw264.7 cells used for PI3Kγ subtype, 2 uL C5a (Biotang, #RPR9899, final concentration 80 ng/mL) was added and incubated for 5 minutes. For Raji cells used for PI3Kδ subtype, 2 μL IgM (Jackson ImmunoResearch, #109-006-129, final concentration 3 ug/mL) was added and incubated for 10 minutes. After the incubation, AlphaLISA SureFire Ultra p-AKT1/2/3(pS473) kit was used to determine the AlphaLISA signal. The kit determination method was briefly described as follows: 20 μL Lysis Buffer was used to lyse the cells for 10 minutes. Then 5 uL acceptor mix and 5 uL donor mix were added to a 384-well plate. The plate was incubated with shaking at room temperature for 2 hours. Envision (PE, #2104) was used to read AlphaLISA signal. By comparing with the signal intensity ratio of the control group (0.5% DMSO), the percentage inhibition rate of the compound at each concentration was calculated. The GraphPad Prism 5 software was used to perform nonlinear regression analysis of the compound concentration logarithmic value vs. the inhibition rate to obtain the IC50 values of the compounds, shown in Table 3.

[2] = target: PI3Kβ(PC-3) (Homo sapiens (Human), UniProt P42338); assay: as above; assay type: cell-based; conditions: PC-3 cells, LPA stimulated
From the text: as §1, §2

[3] = target: PI3Kδ(Raji) (Homo sapiens (Human), UniProt O00329); assay: as above; assay type: cell-based; conditions: Raji cells, IgM stimulated
From the text: as §1, §2

[4] = target: PI3Kγ(Raw264.7) (Mus musculus (Mouse), UniProt Q9JHG7); assay: as above; assay type: cell-based
Chain of PI3Kγ(Raw264.7) (Q9JHG7 whole entry): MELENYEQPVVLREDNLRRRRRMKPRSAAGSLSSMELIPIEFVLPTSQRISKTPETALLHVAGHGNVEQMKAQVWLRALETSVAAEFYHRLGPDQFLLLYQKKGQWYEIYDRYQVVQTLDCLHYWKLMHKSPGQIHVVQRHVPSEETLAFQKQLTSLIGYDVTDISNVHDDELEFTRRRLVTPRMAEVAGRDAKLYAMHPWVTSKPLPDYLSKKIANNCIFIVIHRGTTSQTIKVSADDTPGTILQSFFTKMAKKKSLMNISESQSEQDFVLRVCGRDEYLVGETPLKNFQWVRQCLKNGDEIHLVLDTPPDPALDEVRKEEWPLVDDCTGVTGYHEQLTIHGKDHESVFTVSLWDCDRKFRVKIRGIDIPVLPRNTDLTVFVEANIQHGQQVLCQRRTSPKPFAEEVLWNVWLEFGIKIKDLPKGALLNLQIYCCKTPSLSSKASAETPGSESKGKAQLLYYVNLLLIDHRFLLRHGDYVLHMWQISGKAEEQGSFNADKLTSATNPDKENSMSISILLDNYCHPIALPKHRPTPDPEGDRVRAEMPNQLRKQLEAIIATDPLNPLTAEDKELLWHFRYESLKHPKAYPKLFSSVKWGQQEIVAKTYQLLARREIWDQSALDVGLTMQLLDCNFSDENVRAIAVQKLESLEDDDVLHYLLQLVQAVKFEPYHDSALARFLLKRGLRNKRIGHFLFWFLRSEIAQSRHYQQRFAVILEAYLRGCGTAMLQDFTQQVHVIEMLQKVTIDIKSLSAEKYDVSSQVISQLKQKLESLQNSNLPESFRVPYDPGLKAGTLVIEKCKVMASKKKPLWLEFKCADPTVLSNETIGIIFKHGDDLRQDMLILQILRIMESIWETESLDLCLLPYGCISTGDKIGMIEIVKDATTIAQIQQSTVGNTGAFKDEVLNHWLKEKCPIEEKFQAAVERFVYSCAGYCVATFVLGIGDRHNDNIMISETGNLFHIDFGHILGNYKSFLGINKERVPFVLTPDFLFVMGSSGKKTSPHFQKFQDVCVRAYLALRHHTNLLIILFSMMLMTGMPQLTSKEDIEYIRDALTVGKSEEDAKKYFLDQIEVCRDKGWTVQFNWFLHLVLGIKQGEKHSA
Chain of PI3Kγ(Raw264.7) (Q5SW28 whole entry partner): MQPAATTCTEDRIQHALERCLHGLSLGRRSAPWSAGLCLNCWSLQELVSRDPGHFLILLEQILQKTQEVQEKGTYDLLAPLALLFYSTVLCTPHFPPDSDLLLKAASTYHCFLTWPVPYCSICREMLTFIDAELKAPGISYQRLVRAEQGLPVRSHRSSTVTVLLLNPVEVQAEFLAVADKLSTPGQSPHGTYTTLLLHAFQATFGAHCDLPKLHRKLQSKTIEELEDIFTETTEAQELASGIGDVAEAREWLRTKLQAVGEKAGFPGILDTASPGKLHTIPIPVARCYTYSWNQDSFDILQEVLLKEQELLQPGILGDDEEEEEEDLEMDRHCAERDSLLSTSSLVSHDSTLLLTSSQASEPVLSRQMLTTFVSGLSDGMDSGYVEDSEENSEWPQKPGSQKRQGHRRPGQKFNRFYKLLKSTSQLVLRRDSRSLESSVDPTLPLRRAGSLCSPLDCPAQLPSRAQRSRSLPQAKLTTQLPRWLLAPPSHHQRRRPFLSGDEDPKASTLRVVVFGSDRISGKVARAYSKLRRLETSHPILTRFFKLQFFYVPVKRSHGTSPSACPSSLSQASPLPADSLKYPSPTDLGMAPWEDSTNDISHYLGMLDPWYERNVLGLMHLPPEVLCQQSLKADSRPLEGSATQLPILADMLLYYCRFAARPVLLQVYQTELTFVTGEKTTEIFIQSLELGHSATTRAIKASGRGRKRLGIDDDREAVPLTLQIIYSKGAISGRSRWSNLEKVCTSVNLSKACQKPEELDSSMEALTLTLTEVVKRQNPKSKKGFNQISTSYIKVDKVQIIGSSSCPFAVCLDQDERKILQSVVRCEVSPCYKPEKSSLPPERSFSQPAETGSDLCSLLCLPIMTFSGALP
From the text: as §1, §2

[5] = Oral pharmacokinetics in SD rats; assay type: in vivo; conditions: male, rat, plasma, Oral (5 mg/kg)
Method: Using SD rats as test animals, the rats were intragastrically administrated with the compound of the present invention. LC/MS/MS method was used to determine the drug concentration in the plasma at different times to study the pharmacokinetic characteristics of the compound of the present invention in rats.
An appropriate amount of the compound to be tested was weighed, and 0.5% sodium carboxymethylcellulose (containing 0.05% Tween80) was added. The mixture was vortexed, and sonicated so that the solid was ultrasonically dispersed uniformly to obtain a suspension. 100 μL×2 of the filtered preparation were aspirated, and placed in 1.5-mL EP tubes, stored at […]. The concentration of the preparation was 0.5 mg/mL.
Nine healthy adult male SD rats were fasted overnight and then intragastrically administered (dosage of administration was 5 mg/kg), and fed 4 hours after administration.
About 0.2 mL of blood was collected from the jugular vein at 0.083 hours, 0.25 hours, 0.5 hours, 1 hour, 2 hours, 4 hours, 8 hours, 12 hours, and 24 hours after administration, and heparin sodium was used for anticoagulation. The collected blood samples were placed on ice and centrifuged to separate the plasma (centrifugation conditions: 1500 g, 10 minutes). The collected plasma was stored at −40 to −20° C. before analysis. The LC-MS/MS method was used to determine the content of the test compound in the plasma of SD rats after intragastric administration of different compounds.

[6] = Metabolic stability in liver microsomes; assay type: in vitro ADME; conditions: human liver microsomes 0.5 mg/mL, 1 μM compound, NADPH 1 mM; read-out: half-life period/(T1/2, min)
Method: The test compound was co-incubated with human liver microsomes, and coenzyme NADPH was added to initiate the reaction. At 0, 5, 15, 30 and 60 minutes, 20 μL of incubation solution was taken out and transferred to 200 μL of acetonitrile containing internal standard to stop the reaction. After protein precipitation, centrifugation was performed at 3,700 rpm for 10 minutes and the supernatant was taken. The supernatant was diluted 1:1 with water and analyzed by LC-MS/MS method. According to the elimination half-life of the test compound in the incubation system, the in vitro intrinsic clearance rate was calculated. Midazolam was used as the internal reference compound and incubated for two aliquots in parallel.
The ratio of peak area of the analyte/internal standard (Aanalyte/AIS) was obtained by the instrument. The remaining percentage (% Control) was calculated from the ratio of Aanalyte/AIS in the non-zero time point sample to the zero time point sample. Ln (% Control) versus incubation time was plotted and a linear fit was performed. The clearance constant (k, min^−1), the clearance half-life (T1/2, min) and the in vitro intrinsic clearance rate (CLint, mL·min^−1·mg^−1 proteins) of the test compound were calculated by the following equations.
Cprotein(mg·mL^−1) refers to the concentration of microsomal protein in the incubation system.

[7] = target: recombinant human PI3Kβ (Homo sapiens (Human), UniProt P42338); assay: Inhibitory activity on PI3K kinase (ADP-Glo Kinase Assay)
From the text: The following method is used to determine the degree of inhibition of recombinant human PI3Kα, PI3Kβ, PI3Kγ and PI3Kδ kinase activity by the compounds of the present invention under in vitro conditions. Promega's ADP-Glo Kinase Assay Kit (Cat. No. V9102) was used in this method. The above kit was a luminescence kinase detection kit, which was used to detect the ADP content produced by the kinase reaction. The ADP content was positively correlated with the kinase activity. By measuring the ADP content, the inhibition of the compound on the activity of PI3Kα, PI3Kβ, PI3Kγ and PI3Kδ kinases was reflected. […] Recombinant human PI3Kα, PI3Kγ, and PI3Kδ were purchased from Invitrogen, and PI3Kβ was purchased from Promega (category numbers were PI3Kα: PV4788; PI3Kβ: V1751; PI3Kγ: PV4786 and PI3Kδ: PV6451 separately).

Chain of PI3Kα(C2C12) (P42337 whole entry): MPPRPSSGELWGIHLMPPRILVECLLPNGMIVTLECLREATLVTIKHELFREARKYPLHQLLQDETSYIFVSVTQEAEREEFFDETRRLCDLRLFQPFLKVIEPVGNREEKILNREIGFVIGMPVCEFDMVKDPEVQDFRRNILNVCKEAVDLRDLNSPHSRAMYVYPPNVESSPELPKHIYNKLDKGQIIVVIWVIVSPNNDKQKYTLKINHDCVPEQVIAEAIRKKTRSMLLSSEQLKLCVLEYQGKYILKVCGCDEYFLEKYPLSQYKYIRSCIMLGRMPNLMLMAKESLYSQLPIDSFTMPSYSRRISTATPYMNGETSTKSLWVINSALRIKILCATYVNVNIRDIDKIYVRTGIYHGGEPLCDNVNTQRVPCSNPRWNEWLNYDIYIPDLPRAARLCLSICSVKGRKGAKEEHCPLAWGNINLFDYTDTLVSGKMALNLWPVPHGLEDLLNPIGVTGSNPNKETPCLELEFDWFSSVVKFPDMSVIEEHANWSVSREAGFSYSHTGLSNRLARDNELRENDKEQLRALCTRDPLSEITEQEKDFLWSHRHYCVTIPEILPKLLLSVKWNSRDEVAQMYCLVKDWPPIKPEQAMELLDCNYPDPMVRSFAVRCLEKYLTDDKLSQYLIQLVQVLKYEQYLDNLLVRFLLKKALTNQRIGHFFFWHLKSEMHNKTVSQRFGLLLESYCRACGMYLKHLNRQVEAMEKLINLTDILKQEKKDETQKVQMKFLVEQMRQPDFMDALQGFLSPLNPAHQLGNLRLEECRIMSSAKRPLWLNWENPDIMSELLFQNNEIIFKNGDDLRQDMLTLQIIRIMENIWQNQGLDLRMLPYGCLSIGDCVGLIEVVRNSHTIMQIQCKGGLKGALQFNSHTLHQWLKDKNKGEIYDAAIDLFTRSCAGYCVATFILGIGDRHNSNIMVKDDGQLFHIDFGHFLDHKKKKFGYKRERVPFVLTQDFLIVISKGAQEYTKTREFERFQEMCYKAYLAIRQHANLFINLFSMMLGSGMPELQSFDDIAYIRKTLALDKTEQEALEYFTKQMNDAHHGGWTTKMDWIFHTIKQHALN
Chain of PI3Kα(C2C12) (P26450 whole entry partner): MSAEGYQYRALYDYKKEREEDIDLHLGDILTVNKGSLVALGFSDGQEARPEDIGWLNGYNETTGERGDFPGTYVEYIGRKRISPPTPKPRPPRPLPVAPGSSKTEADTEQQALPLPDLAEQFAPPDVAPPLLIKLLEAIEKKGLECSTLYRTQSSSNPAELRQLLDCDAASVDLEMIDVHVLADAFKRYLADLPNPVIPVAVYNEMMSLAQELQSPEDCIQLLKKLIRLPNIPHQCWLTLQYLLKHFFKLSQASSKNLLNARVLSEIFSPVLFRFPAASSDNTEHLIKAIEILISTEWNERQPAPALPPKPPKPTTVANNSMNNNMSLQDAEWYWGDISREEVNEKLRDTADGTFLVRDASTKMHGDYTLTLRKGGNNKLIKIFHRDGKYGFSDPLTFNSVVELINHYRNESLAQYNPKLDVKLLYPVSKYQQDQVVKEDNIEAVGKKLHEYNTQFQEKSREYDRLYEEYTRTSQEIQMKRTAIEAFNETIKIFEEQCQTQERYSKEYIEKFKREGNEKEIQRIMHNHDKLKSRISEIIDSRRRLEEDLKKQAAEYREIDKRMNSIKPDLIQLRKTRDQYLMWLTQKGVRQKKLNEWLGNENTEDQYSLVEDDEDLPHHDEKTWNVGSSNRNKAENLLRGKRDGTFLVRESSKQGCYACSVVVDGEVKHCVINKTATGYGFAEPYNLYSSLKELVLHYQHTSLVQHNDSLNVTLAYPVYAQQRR

`C[C@H](NC(=O)c1c(N)nn2cccnc12)c1nc2cccc(C#Cc3cnn(C4CC4)c3)c2c(=O)n1-c1ccccc1` [Example 2, (S)-2-amino-N-(1-(5-((1-cyclopropyl-1H-pyrazol-4-yl)ethynyl)-4-oxo-3-phenyl-3,4-dihydroquinazolin-2-yl)ethyl)pyrazolo[1,5-a]pyrimidine-3-carboxamide] showed an IC50 [1] of 4770 nM, an IC50 [2] of 878 nM and an IC50 [3] of 355 nM. For the same compound, the IC50 ([4]; Raw264.7 cells, C5a stimulated, p-AKT (pS473)) was 3.42 nM, the “IC50 (PI3Kα)/IC50(PI3Kγ)” value ([4]; cell selectivity, C2C12 vs Raw264.7) was 1394 and the “IC50 (PI3Kβ)/IC50(PI3Kγ)” value ([4]; cell selectivity, PC-3 vs Raw264.7) was 257. The “IC50 (PI3Kδ)/IC50(PI3Kγ)” value ([4]; cell selectivity, Raji vs Raw264.7) was 104, the AUC(0-inf) ([5]; read-out: Area under the curve AUC0-∞) was 11000 ng·h/mL and the bioavailability ([5]; read-out: Bioavailability F) was 66%. For the same compound, the half-life ([5]; read-out: Half-life period T1/2 (converted)) was 4.1 h, the Cmax ([5]; read-out: Plasma concentration Cmax) was 1160 ng/mL and the half-life at 1 μM [6] was 233 min. It also gave an IC50 [7] of 466 nM.
